Read-outs that look alike come from different tables or passages of the source.
How the values were obtained:
Assay type in all cases: cell-based
CDK2 = target: T1, CDK2 (Homo sapiens, UniProt P24941); assay: HiBit Assay Protocol for CDK2 (HIBIT protein quantification, degradation); details: HEK293-CDK2-Hibit cells, compound treatment for 6 hours; for DC50: ABS DC50
T1 construct: host or cells: HEK293-CDK2-Hibit
Procedure, shortened: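 HEK293 cells expressing HiBiT-tagged CDK2 were seeded overnight, then treated 6 h with a 3-fold, 10-point compound dilution series. CDK2 levels were read as luminescence after lytic HiBiT/LgBiT detection, normalised to DMSO-only and medium-only controls, and DC50 derived by curve fitting.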

CDK9 = target: T2, CDK9 (Homo sapiens, UniProt P50750); assay: HiBit Assay Protocol for CDK9 (HIBIT protein quantification, degradation); details: HEK293-CDK9-Hibit cells, compound treatment for 6 hours, read-out: CDK9 HIBIT Protein Quantification Maximum
T2 construct: host or cells: HEK293-CDK9-Hibit
T2 sequence (P50750 whole entry): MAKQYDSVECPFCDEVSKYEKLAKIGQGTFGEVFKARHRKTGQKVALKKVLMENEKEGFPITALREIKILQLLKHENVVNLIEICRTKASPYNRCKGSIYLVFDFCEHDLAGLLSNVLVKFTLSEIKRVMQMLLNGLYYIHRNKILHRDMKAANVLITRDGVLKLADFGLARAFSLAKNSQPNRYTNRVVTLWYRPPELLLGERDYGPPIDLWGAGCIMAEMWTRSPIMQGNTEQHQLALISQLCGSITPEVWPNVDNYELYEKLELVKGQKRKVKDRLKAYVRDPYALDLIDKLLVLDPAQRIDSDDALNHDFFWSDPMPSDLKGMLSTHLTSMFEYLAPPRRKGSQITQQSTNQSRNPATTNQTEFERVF
Procedure, shortened: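 HEK293 cells carrying HiBiT-tagged CDK9 treated 6 h with compounds in a 3-fold, 10-point dilution series. CDK9 level read by lytic Nano-Glo HiBiT/LgBiT luminescence and normalized to 0.1% DMSO (high) and medium-only (low) controls. DC50 from curve fitting.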

CCNE1 = target: T3, CCNE1 (Homo sapiens, UniProt P24864); assay: HiBit Assay Protocol for CCNE1 (HIBIT protein quantification, degradation); details: HEK293-CCNE1-Hibit cells, compound treatment for 6 hours
T3 construct: host or cells: HEK293-CCNE1-Hibit
T3 sequence (P24864 whole entry): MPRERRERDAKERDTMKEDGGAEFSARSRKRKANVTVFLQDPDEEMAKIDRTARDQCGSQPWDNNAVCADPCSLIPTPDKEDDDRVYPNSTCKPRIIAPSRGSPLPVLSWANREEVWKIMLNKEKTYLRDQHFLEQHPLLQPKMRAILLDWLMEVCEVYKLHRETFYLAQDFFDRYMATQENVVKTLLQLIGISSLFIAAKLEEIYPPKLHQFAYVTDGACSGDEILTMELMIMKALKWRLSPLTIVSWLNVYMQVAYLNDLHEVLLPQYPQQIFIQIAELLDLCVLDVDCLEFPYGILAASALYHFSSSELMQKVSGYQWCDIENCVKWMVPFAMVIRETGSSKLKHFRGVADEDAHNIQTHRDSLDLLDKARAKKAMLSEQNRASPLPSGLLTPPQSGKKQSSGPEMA
Procedure, shortened: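 HEK293 cells expressing HiBiT-tagged CCNE1 were seeded overnight, then treated 6 h with a 3-fold, 10-point compound dilution series. HiBiT levels were read by lytic LgBiT luminescence and normalised to DMSO-only (high) and medium-only (low) controls. DC50 was derived by curve fitting.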

| Compound | CDK2 HIBIT Protein Quantification Maximum (CDK2) | DC50 (CDK2) | Dmax (CDK9; 6 h) | CCNE1 HIBIT Protein Quantification Maximum (CCNE1) | Dmax (CDK9) |
| --- | --- | --- | --- | --- | --- |
| CC1CCCC1N1C(=O)C2(CC2)c2cnc(NC3CCN(S(=O)(=O)N4CC5(CCCN(C6CCN(c7cccc8c7n(C)c(=O)n8C7CCC(=O)NC7=O)CC6)C5)C4)CC3)nc21 (centres unmarked) [Compound 139] | 65% | 3.23 nM | 11% | 50% | – |
| CC1CCCC1N1C(=O)C2(CC2)c2cnc(NC3CCN(S(=O)(=O)C4CCN(CC5CCN(c6ccc7c(c6)n(C)c(=O)n7C6CCC(=O)NC6=O)CC5)C4)CC3)nc21 (centres unmarked) [Compound 140, 3-(3-Methyl-5-{4-[(3-{4-[7′-(2-methylcyclopentyl)-6′-oxospiro[cyclopropane-1,5′-pyrrolo[2,3-d]pyrimidin]-2′-ylamino]piperidin-1-ylsulfonyl}pyrrolidin-1-yl)methyl]piperidin-1-yl}-2-oxo-1,3-benzodiazol-1-yl)piperidine-2,6-dione] | 71% | 2.09 nM | 8% | 20% | – |
| CC1CCCC1N1C(=O)C2(CC2)c2cnc(NC3CCN(S(=O)(=O)N4CCC5(CCN(CCCCCCCOc6cccc7c6n(C)c(=O)n7C6CCC(=O)NC6=O)C5)C4)CC3)nc21 (centres unmarked) [Compound 141, 3-(3-Methyl-4-{[7-(7-{4-[7′-(2-methylcyclopentyl)-6′-oxospiro[cyclopropane-1,5′-pyrrolo[2,3-d]pyrimidin]-2′-ylamino]piperidin-1-ylsulfonyl}-2,7-diazaspiro[4.4]nonan-2-yl)heptyl]oxy}-2-oxo-1,3-benzodiazol-1-yl)piperidine-2,6-dione] | 49% | – | 27% | 25% | – |
| CC1CCCC1N1C(=O)C2(CC2)c2cnc(NC3CCN(S(=O)(=O)N4CC5(CCCCN5CC5CCN(c6cccc7c6n(C)c(=O)n7C6CCC(=O)NC6=O)CC5)C4)CC3)nc21 (centres unmarked) [Compound 142] | 53% | 36.1 nM | 5% | 26% | – |
| CC1CCCC1N1C(=O)C2(CC2)c2cnc(NC3CCN(S(=O)(=O)N4CC5(CN(CCCCOc6ccc7c(c6)n(C)c(=O)n7C6CCC(=O)NC6=O)C5)C4)CC3)nc21 (centres unmarked) [Compound 143] | 11% | – | -2% | 1% | – |
| CC1CCCC1N1C(=O)C2(CC2)c2cnc(NC3CCN(S(=O)(=O)N4CC5(CN(CC6CCN(c7ccc8c(c7)n(C)c(=O)n8C7CCC(=O)NC7=O)CC6)C5)C4)CC3)nc21 (centres unmarked) [Compound 144] | 75% | 1.97 nM | 49% | 39% | – |
| CC1CCCC1N1C(=O)C2(CC2)c2cnc(NC3CCN(S(=O)(=O)N4CCN(CC5CCN(c6cccc7c6n(C)c(=O)n7C6CCC(=O)NC6=O)CC5)CC4)CC3)nc21 (centres unmarked) [Compound 145] | 79% | 4.08 nM | 14% | 25% | – |
| Cn1c(=O)n(C2CCC(=O)NC2=O)c2ccc(C3CCN(Cc4cccc(S(=O)(=O)N5CCC(Nc6ncc7c(n6)N([C@@H]6CCC[C@@H](O)C6)C(=O)C76CC6)CC5)c4)CC3)cc21 (stereo partly drawn) [Compound 147, 3-[5-(1-{[3-(4-{7′-[(1R,3R)-3-Hydroxycyclohexyl]-6′-oxospiro[cyclopropane-1,5′-pyrrolo[2,3-d]pyrimidin]-2′-ylamino}piperidin-1-ylsulfonyl)phenyl]methyl}piperidin-4-yl)-3-methyl-2-oxo-1,3-benzodiazol-1-yl]piperidine-2,6-dione] | 64% | 11 nM | – | 13% | 2% |
| Cn1c(=O)n(C2CCC(=O)NC2=O)c2cccc(C3CCN(Cc4cccc(S(=O)(=O)N5CCC(Nc6ncc7c(n6)N([C@@H]6CCC[C@@H](O)C6)C(=O)C76CC6)CC5)c4)CC3)c21 (some centres unmarked) [Compound 148] | 78% | 6 nM | 2% | 44% | – |
| Cn1c(=O)n(C2CCC(=O)NC2=O)c2ccc(-c3ccc(Oc4cccc(S(=O)(=O)N5CCC(Nc6ncc7c(n6)N([C@@H]6CCC[C@@H](O)C6)C(=O)C76CC6)CC5)c4)cc3)cc21 (stereo partly drawn) [Compound 149, 3-(5-{4-[3-(4-{7′-[(1R,3R)-3-Hydroxycyclohexyl]-6′-oxospiro[cyclopropane-1,5′-pyrrolo[2,3-d]pyrimidin]-2′-ylamino}piperidin-1-ylsulfonyl)phenoxy]phenyl}-3-methyl-2-oxo-1,3-benzodiazol-1-yl)piperidine-2,6-dione] | 69% | 13.9 nM | 17% | 11% | – |
| Cn1c(=O)n(C2CCC(=O)NC2=O)c2cccc(-c3ccc(Oc4cccc(S(=O)(=O)N5CCC(Nc6ncc7c(n6)N([C@@H]6CCC[C@@H](O)C6)C(=O)C76CC6)CC5)c4)cc3)c21 (some centres unmarked) [Compound 150] | 67% | 12.9 nM | 45% | 41% | – |
| C[C@@H]1CN(S(=O)(=O)c2cccc(CN3CCC(c4ccc5c(N6CCC(=O)NC6=O)nn(C)c5c4)CC3)c2)CC[C@@H]1Nc1ncc2c(n1)N([C@@H]1CCC[C@@H](O)C1)C(=O)C21CC1 [Compound 153, 1-{6-[1-({3-[(3R,4S)-4-{7′-[(1R,3R)-3-Hydroxycyclohexyl]-6′-oxospiro[cyclopropane-1,5′-pyrrolo[2,3-d]pyrimidin]-2′-ylamino}-3-methylpiperidin-1-ylsulfonyl]phenyl}methyl)piperidin-4-yl]-1-methylindazol-3-yl}-1,3-diazinane-2,4-dione] | 57% | 9.42 nM | 17% | 28% | – |
| C[C@@H]1CN(S(=O)(=O)c2cccc(CN3CCC(c4ccc5c(N6CCC(=O)NC6=O)nn(C)c5c4)CC3)c2)CC[C@H]1Nc1ncc2c(n1)N([C@@H]1CCC[C@@H](O)C1)C(=O)C21CC1 [Compound 154] | 64% | 7.87 nM | 15% | 31% | – |
| Cn1nc(N2CCC(=O)NC2=O)c2ccc(C3CCN(Cc4cccc(S(=O)(=O)N5CC[C@@H](Nc6ncc7c(n6)N([C@@H]6CCC[C@@H](O)C6)C(=O)C76CC6)[C@@H](F)C5)c4)CC3)cc21 [Compound 155, 1-{6-[1-({3-[(3S,4R)-3-Fluoro-4-{7′-[(1R,3R)-3-hydroxycyclohexyl]-6′-oxospiro[cyclopropane-1,5′-pyrrolo[2,3-d]pyrimidin]-2′-ylamino}piperidin-1-ylsulfonyl]phenyl}methyl)piperidin-4-yl]-1-methylindazol-3-yl}-1,3-diazinane-2,4-dione] | 19% | – | 8% | 14% | – |
| Cn1nc(N2CCC(=O)NC2=O)c2ccc(C3CCN(Cc4cccc(S(=O)(=O)N5CC[C@H](Nc6ncc7c(n6)N([C@@H]6CCC[C@@H](O)C6)C(=O)C76CC6)[C@H](F)C5)c4)CC3)cc21 [Compound 156] | 81% | 1.66 nM | 9% | 44% | – |
| Cn1nc(N2CCC(=O)NC2=O)c2ccc(C3CCN(Cc4cccc(S(=O)(=O)N5CC[C@H](Nc6ncc7c(n6)N([C@@H]6CCC[C@@H](O)C6)C(=O)C76CC6)[C@@H](F)C5)c4)CC3)cc21 [Compound 157] | 18% | – | 12% | 14% | – |
| Cn1nc(N2CCC(=O)NC2=O)c2ccc(C3CCN(Cc4cc(S(=O)(=O)N5CCC(Nc6ncc7c(n6)N([C@@H]6CCC[C@@H](O)C6)C(=O)C76CC6)CC5)ccn4)CC3)cc21 [Compound 160, 1-[6-(1-{[4-(4-{7′-[(1R,3R)-3-Hydroxycyclohexyl]-6′-oxospiro[cyclopropane-1,5′-pyrrolo[2,3-d]pyrimidin]-2′-ylamino}piperidin-1-ylsulfonyl)pyridin-2-yl]methyl}piperidin-4-yl)-1-methylindazol-3-yl]-1,3-diazinane-2,4-dione] | 75% | 25.2 nM | 38% | 34% | – |
| Cn1nc(N2CCC(=O)NC2=O)c2ccc(C3CCN(Cc4cccc(S(=O)(=O)N5CCC(Nc6ncc7c(n6)N(c6cc(F)ccc6Cl)C(=O)C76CC6)CC5)c4)CC3)cc21 [Compound 162, 1-(6-{1-[(3-{4-[7′-(2-Chloro-5-fluorophenyl)-6′-oxospiro[cyclopropane-1,5′-pyrrolo[2,3-d]pyrimidin]-2′-ylamino]piperidin-1-ylsulfonyl}phenyl)methyl]piperidin-4-yl}-1-methylindazol-3-yl)-1,3-diazinane-2,4-dione] | 75% | 8.03 nM | – | 42% | 4% |
